Results from patent US20230312550A1, “N-(2-(4-CYANOTHIAZOLIDIN-3-YL)-2-OXOETHYL)-QUINOLINE-4-CARBOXAMIDES” (AstraZeneca AB, priority 2020, published 2023).
Values after ≈ are worked out from the molar mass of the structure shown.

Assays:
FAP = FAP (Homo sapiens (Human), UniProt Q12884); assay: hFAP inhibition assay; format: biochemical; conditions: hFAP […], Ala-Pro-AMC 20 μM; n = 1 or geometric mean n = 2-3
Description: 384 low volume black plates (Greiner #784076) were used. 4 μL, 0.48 nM enzyme solution (100 mM Tris HCl, 100 mM NaCl, 0.05% Chaps, pH 7.4) was added to 40 nL compounds (in DMSO) at 10 CR, 3 fold dilution series from 50 μM FAC. Plates were incubated for 15 min at rt in dark. 4 μL, 40 μM substrate solution (100 mM Tris HCl, 100 mM NaCl, 0.05% Chaps, pH 7.4) was added to each well. Plates were centrifuged at 1000 rpm and incubated for 30 min at rt in dark. The plates were read on a PHERAstar® reader with excitation 340 nm and emission 460 nm. Data were analyzed in Genedata Screener®. IC50 values were determined by plotting % inhibition versus log compound concentration and using a one site dose response model.

[1] = molecular target: human Fibroblast activation protein alpha (hFAP) (Homo sapiens (Human), UniProt Q12884); assay: hFAP inhibition assay (tight binders); format: biochemical; conditions: Ala-Pro-AMC 20 μM, n = 1 or geometric mean n = 2-6; note: hFAP 2.4 pM
Chain of human Fibroblast activation protein alpha (hFAP) (Q12884 38-760): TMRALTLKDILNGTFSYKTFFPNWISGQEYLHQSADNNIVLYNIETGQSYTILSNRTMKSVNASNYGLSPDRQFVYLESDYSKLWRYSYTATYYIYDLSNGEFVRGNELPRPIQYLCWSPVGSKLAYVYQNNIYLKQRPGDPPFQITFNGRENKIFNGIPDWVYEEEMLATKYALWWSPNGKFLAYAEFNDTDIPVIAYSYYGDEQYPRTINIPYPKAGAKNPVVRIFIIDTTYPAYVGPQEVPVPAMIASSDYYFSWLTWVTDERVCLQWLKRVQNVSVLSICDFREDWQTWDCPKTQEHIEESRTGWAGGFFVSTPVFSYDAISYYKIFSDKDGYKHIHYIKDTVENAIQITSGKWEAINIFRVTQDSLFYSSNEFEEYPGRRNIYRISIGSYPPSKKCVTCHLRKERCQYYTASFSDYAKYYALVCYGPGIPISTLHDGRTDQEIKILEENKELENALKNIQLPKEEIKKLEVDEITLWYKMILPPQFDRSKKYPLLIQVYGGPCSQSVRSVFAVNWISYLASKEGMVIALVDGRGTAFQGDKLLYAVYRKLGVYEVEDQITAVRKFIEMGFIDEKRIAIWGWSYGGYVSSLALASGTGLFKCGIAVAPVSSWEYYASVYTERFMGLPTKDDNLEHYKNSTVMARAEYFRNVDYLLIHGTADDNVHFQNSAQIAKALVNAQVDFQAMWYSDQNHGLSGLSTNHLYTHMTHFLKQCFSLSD
Description: The plates were read on a PHERAstar® reader with excitation 340 nm and emission 460 nm. Data were analyzed in Genedata Screener®. IC50 values were determined by plotting % inhibition versus log compound concentration and using a one site dose response model.

hFAP (M39-A757) = hFAP (M39-A757) (Homo sapiens (Human), UniProt Q12884); assay: hFAP binding assay (surface plasmon resonance); conditions: SPR, 20° C.; for hFAP Binding assay k(off) / hFAP Binding assay k(on): single cycle kinetics; for Kd: n = 1 or geometric mean n = 2-4
Chain of hFAP (M39-A757) (Q12884 39-757): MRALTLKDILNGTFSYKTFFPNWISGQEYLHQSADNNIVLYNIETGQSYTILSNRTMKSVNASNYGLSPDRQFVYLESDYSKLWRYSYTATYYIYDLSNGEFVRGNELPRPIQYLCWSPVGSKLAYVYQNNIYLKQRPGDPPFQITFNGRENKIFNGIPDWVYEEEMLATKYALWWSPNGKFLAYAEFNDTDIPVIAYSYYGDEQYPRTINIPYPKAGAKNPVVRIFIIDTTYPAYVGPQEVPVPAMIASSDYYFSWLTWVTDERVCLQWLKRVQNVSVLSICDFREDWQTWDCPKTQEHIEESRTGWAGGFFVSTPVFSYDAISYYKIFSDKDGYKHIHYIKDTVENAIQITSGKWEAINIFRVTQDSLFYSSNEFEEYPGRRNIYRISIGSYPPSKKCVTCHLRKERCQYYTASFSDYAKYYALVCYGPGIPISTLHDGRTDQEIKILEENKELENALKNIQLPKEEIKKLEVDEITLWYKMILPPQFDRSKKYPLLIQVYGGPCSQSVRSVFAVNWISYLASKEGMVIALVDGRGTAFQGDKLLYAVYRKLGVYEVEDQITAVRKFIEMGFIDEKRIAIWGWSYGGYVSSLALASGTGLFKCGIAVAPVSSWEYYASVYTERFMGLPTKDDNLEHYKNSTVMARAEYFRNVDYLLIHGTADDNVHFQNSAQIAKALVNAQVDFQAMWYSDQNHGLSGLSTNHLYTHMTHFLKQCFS

[2] = molecular target: Prolyl endopeptidase, Prolyl Oligopeptidase (hPREP) (Homo sapiens (Human), UniProt P48147); assay: hPrep inhibition assay; format: biochemical; conditions: hPREP 0.6 nM, Z-Gly-Pro-amino-methylcoumarin 50 μM; read-out: PREP IC50
Chain of Prolyl endopeptidase, Prolyl Oligopeptidase (hPREP) (P48147 whole entry): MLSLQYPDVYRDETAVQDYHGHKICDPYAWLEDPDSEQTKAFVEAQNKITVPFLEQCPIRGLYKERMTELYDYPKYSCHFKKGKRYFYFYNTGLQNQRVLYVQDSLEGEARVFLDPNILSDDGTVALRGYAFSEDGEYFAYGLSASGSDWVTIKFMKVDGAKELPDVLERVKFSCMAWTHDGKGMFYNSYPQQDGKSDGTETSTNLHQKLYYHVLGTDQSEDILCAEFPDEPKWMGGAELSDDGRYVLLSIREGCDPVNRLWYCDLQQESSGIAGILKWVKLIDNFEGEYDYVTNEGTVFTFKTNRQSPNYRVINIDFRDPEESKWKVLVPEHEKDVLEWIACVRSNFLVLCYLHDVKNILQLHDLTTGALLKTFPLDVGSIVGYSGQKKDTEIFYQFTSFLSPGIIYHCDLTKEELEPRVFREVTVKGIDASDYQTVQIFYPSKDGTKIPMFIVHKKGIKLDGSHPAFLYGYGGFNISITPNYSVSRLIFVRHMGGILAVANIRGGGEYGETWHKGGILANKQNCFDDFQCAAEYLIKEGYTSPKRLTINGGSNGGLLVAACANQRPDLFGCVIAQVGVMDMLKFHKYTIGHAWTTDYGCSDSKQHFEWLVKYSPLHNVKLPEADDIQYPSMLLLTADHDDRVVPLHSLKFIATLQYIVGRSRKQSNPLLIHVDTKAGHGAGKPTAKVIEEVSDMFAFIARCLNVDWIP
Method in brief: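 Recombinant human PREP at 0.6 nM final with Z-Gly-Pro-AMC substrate at 50 μM final in Tris-HCl pH 7.5, NaCl, Triton X-100, glutathione; 15 min rt preincubation then 20 min rt reaction in dark. AMC fluorescence (ex 340/em 460 nm); IC50 from one-site dose-response fit of % inhibition.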

Kinetic solubility = conditions: kinetic from dmso stock, Solubility, kinetic solubility; n = 1 or average of n = 2-3
Description: Kinetic solubility was measured as described in Comput Aided Mol Des 2015, 29, 795.

[3] = Metabolic stability in rat hepatocytes (rHep); conditions: n = 1 or geometric mean of n = 2-3
[4] = Metabolic stability in human liver microsomes (HLM); conditions: human, HLM CLint, n = 1 or average of n = 2-3
Description: Metabolic stability in HLM was measured as described in J Comput Aided Mol Des 2015, 29, 795.

Chain of FAP (Q12884 38-760): as the sequence (Q12884 38-760) above

Compound | IC50 (FAP) | IC50 [1] | hFAP Binding assay k(off) (hFAP (M39-A757)) | hFAP Binding assay k(on) (hFAP (M39-A757)) | Kd (hFAP (M39-A757)) | IC50 [2] | solubility (Kinetic solubility) | rHep CLint [3] | microsomal CLint [4]
CC1CN(c2ccc3nccc(C(=O)NCC(=O)N4CSC[C@H]4C#N)c3c2)C1 [Example 25, (R)—N-(2-(4-Cyanothiazolidin-3-yl)-2-oxoethyl)-6-(3-methylazetidin-1-yl)-quinoline-4-carboxamide] | 0.41 nM | 0.3 nM | 0.00011 s⁻¹ | 1400000 M⁻¹ s⁻¹ | 0.076 nM | 370 nM | 130 µM (≈ 51.4 µg/mL) | 14 μL/min/1E6 | 23 µL/min/mg
CC1(F)CCN(c2ccc3nccc(C(=O)NCC(=O)N4CSC[C@H]4C#N)c3c2)CC1 [Example 34, (R)—N-(2-(4-Cyanothiazolidin-3-yl)-2-oxoethyl)-6-(4-fluoro-4-methyl-piperidin-1-yl)quinoline-4-carboxamide] | 0.27 nM | 0.22 nM | 0.000082 s⁻¹ | 2200000 M⁻¹ s⁻¹ | 0.057 nM | 430 nM | 770 µM (≈ 340 µg/mL) | 33 μL/min/1E6 | 38 µL/min/mg
C[C@@H]1CN(c2ccc3nccc(C(=O)NCC(=O)N4CSC[C@H]4C#N)c3c2)CCCO1 [Example 64, N-(2-((R)-4-Cyanothiazolidin-3-yl)-2-oxoethyl)-6-((R)-2-methyl-1,4-oxazepan-4-yl)quinoline-4-carboxamide] | 0.28 nM | 0.085 nM | 0.00015 s⁻¹ | 1300000 M⁻¹ s⁻¹ | 0.12 nM | 610 nM | 130 µM (≈ 57.1 µg/mL) | 29 μL/min/1E6 | 56 µL/min/mg
N#C[C@@H]1CSCN1C(=O)CNC(=O)c1ccnc2ccc(N3CC4CC4C3)cc12 (stereo partly drawn) [Example 206, 6-(3-Azabicyclo[3.1.0]hexan-3-yl)-N-(2-((R)-4-cyanothiazolidin-3-yl)-2-oxoethyl)quinoline-4-carboxamide] | 0.22 nM | 0.065 nM |  |  | 0.033 nM | 330 nM | 26 µM (≈ 10.6 µg/mL) | 130 μL/min/1E6 | 46 µL/min/mg
N#C[C@@H]1CSCN1C(=O)CNC(=O)c1ccnc2ccc(N3CC(F)(F)C3)cc12 [Example 23, (R)—N-(2-(4-Cyanothiazolidin-3-yl)-2-oxoethyl)-6-(3,3-difluoroazetidin-1-yl)quinoline-4-carboxamide] | 0.31 nM | 0.2 nM | 0.00018 s⁻¹ | 2100000 M⁻¹ s⁻¹ | 0.085 nM | 160 nM | 63 µM (≈ 26.3 µg/mL) | 27 μL/min/1E6 | 25 µL/min/mg
N#C[C@@H]1CSCN1C(=O)CNC(=O)c1ccnc2ccc(N3CCC(F)(F)CC3)cc12 [Example 35, (R)—N-(2-(4-Cyanothiazolidin-3-yl)-2-oxoethyl)-6-(4,4-difluoropiperidin-1-yl)quinoline-4-carboxamide] | 0.47 nM | 0.17 nM | 0.00010 s⁻¹ | 900000 M⁻¹ s⁻¹ | 0.1 nM | 1700 nM | 600 µM (≈ 267 µg/mL) | 64 μL/min/1E6 | 63 µL/min/mg
C[C@@H]1COC[C@@H](C)N1c1ccc2nccc(C(=O)NCC(=O)N3CSC[C@H]3C#N)c2c1 [Example 105, N-(2-((R)-4-Cyanothiazolidin-3-yl)-2-oxoethyl)-6-((3R,5R)-3,5-dimethyl-morpholino)quinoline-4-carboxamide] | 0.37 nM | 0.088 nM | 0.000068 s⁻¹ | 890000 M⁻¹ s⁻¹ | 0.082 nM | 590 nM | > 1000 µM | 18 μL/min/1E6 | 180 µL/min/mg
N#C[C@@H]1CSCN1C(=O)CNC(=O)c1ccnc2ccc(N3CCC(C(F)(F)F)CC3)cc12 [Example 39, (R)—N-(2-(4-Cyanothiazolidin-3-yl)-2-oxoethyl)-6-(4-(trifluoromethyl)-piperidin-1-yl)quinoline-4-carboxamide] | 0.28 nM | 0.1 nM | 0.00016 s⁻¹ | 4900000 M⁻¹ s⁻¹ | 0.04 nM | 500 nM | 22 µM (≈ 10.5 µg/mL) | 31 μL/min/1E6 | 120 µL/min/mg
N#C[C@@H]1CSCN1C(=O)CNC(=O)c1ccnc2ccc(N3CCSCC3)cc12 [Example 3, (R)—N-(2-(4-Cyanothiazolidin-3-yl)-2-oxoethyl)-6-thiomorpholinoquinoline-4-carboxamide] | 0.24 nM | 0.13 nM | 0.0004 s⁻¹ | 4100000 M⁻¹ s⁻¹ | 0.095 nM | 690 nM | 700 µM (≈ 299 µg/mL) | 28 μL/min/1E6 | 75 µL/min/mg
N#C[C@@H]1CSCN1C(=O)CNC(=O)c1ccnc2ccc(N3CCCC[C@@H](F)C3)cc12 [Example 59, N-(2-((R)-4-Cyanothiazolidin-3-yl)-2-oxoethyl)-6-((R)-3-fluoroazepan-1-yl)quinoline-4-carboxamide] | 0.27 nM | 0.061 nM | 0.00019 s⁻¹ | 2600000 M⁻¹ s⁻¹ | 0.087 nM | 30 nM | 40 µM (≈ 17.7 µg/mL) | 91 μL/min/1E6 | > 300 µL/min/mg
CC1(CF)CCN(c2ccc3nccc(C(=O)NCC(=O)N4CSC[C@H]4C#N)c3c2)CC1 [Example 37, (R)—N-(2-(4-Cyanothiazolidin-3-yl)-2-oxoethyl)-6-(4-(fluoromethyl)-4-methylpiperidin-1-yl)quinoline-4-carboxamide] | 0.22 nM | 0.19 nM | 0.000030 s⁻¹ | 1000000 M⁻¹ s⁻¹ | 0.028 nM | 270 nM | 210 µM (≈ 95.7 µg/mL) | 30 μL/min/1E6 | 66 µL/min/mg
N#C[C@@H]1CSCN1C(=O)CNC(=O)c1ccnc2ccc(N3CC(C(F)(F)F)C3)cc12 [Example 26, (R)—N-(2-(4-Cyanothiazolidin-3-yl)-2-oxoethyl)-6-(3-(trifluoromethyl)-azetidin-1-yl)quinoline-4-carboxamide] | 0.31 nM | 0.1 nM | 0.000065 s⁻¹ | 1300000 M⁻¹ s⁻¹ | 0.056 nM | 580 nM | 15 µM (≈ 6.74 µg/mL) | 7.6 μL/min/1E6 | 31 µL/min/mg
